Results taken from patent US20250236838A1, “E. COLI NISSLE STRAIN WITH IMPROVED TRANSFORMATION EFFICIENCY” (priority 2024, published 2025).
Where “and” joins values, the source holds several entries; their conditions need not be identical. Equal values may be shown once.

Test: Hydrophobicity, dodecane partitioning assay
Format: physicochemical, E. coli Nissle
Procedure: Hydrophobicity was measured using a standard partitioning assay. Fresh cultures of both strains were grown till log phase (OD600=0.7). The OD was found using Thermo Fischer's NanoDrop^C. The OD546 of the cell (OD1) was adjusted to 0.3 using 10 mM CaCO3 solution. 4 ml of the cell suspension was transferred to individual test tubes having 1 ml of dodecane and vortexed at 2500 rpm for 10 minutes to homogenize the phases. The phases were allowed to separate for 15 minutes. The OD546 of the aqueous phase (OD2) was measured.
The mean percentage of partitioning was calculated using triplicate samples. Partitioning of the bacteria suspension is calculated using Equation (3).

With E. coli Nissle 1917 [Wild Type] the OD2 (OD546 of the aqueous phase after dodecane partitioning) was 0.14 and 0.17, the OD1 (OD546 of the cell suspension before partitioning) was 0.29 and 0.27 and the membrane hydrophobicity (conclusion from phase partitioning) was “hydrophilic”. For the same substance, the “Average Partitioning” value (mean of triplicate samples) was 45.636% and the “Percentage of Partitioning” value (single samples of triplicate) was 51.724% and 37.037% and 48.148%.
